Laboratory results: publication PMC5045448 (Analytical chemistry, 2016)
Read-outs that look alike come from different tables or passages of the source. Marks after values point to notes of the source that are not given here.

Experiments:
[1] = system: mAb 3H7A10; assay: Indirect competitive ELISA; type: binding, Balb/c mice; conditions: for Cross-reactivity: (IC50 of artemisinin/IC50 of other compound) × 100; for cross reactivities: artemisinin-specific mAb from position 9 hapten; for competitive inhibition: mAb 3H7A10, up to 20,000 ng mL^−1
[2] = rats, cited from earlier work
[3] = dogs, cited from earlier work
[4] = in vivo; parameters: species or system Sprague-Dawley rats; conditions: Sprague-Dawley, rat, ip, 10 mg/kg
[5] = system: mAbs raised by artelinic acid-BSA conjugate; conditions: cited from earlier work
[6] = goat, cited from earlier work
[7] = humans, cited from earlier work
[8] = system: mAbs generated by Tanaka et al.; conditions: relative to artemisinin; cited from earlier work
[9] = system: mAbs reported by He et al.; conditions: relative to artemisinin; cited from earlier work
[10] = system: polyclonal antibodies prepared by Song et al.; conditions: cited from earlier work

SMILES	Cross-reactivity ([1]; mAb 3H7A10) [%]	Cross-reactivity [9] [%]	cross reactivities [1]	competitive inhibition ([1]; icELISA)	recognition by polyclonal antibodies [10]	also measured
C=C[C@H]1C[N@@]2CC[C@H]1C[C@H]2[C@H](O)c1ccnc2ccc(OC)cc12 [Quinine]	0					
C[C@@H]1CC[C@H]2[C@@H](C)C(=O)O[C@@H]3O[C@@]4(C)CC[C@@H]1[C@]32OO4 [Artemisinin]	100 ± 4.6					half-life ([2]; in all these studies): ~ 30 min; AUC0-24h ([2]; intraperitoneal injection, 10 mg/kg): 0.132 µM/h; AUC0-3h ([2]; oral administration, 10 mg/kg): 36.4 ng·h/mL; bioavailability ([3]; oral): bioavailability appeared low; AUC(0-t) [4]: 43.7 ng·h/mL; Cmax [4]: 29.1 ± 3 ng/mL; Tmax [4]: 5 min; half-life [4]: 22.8 min; binding by mAbs [5]: approximately the same level; absorption and bioavailability ([6]; large amount of unabsorbed artemisinin eliminated in feces): slow absorption and low bioavailability; IC50 ([1]; icELISA, mAb 3H7A10, means of triplicate ± SD, NI = no inhibition observed with up to 20,000 ng mL^−1 of the analytes): 2.60 ±0.12 ^b ng/mL; AUC ([7]; another study): 754 ng·h/mL; Cmax ([7]; another study): 167 ng/mL; AUC ([7]; one study): 2,611 ng mL^−1 h; Cmax ([7]; one study): 623 ng/mL; half-life [7]: ~ 2 h
CCCCN(CCCC)CC(O)c1cc(Cl)cc2c1-c1ccc(Cl)cc1/C2=C/c1ccc(Cl)cc1 (stereo not drawn) [Lumefantrine]	0					
CCN(CC)CCCC(C)Nc1ccnc2cc(Cl)ccc12.O=P(O)(O)O.O=P(O)(O)O (stereo not drawn) [Chloroquine diphosphate salt]	0					
C[C@H]1[C@H](OC(=O)CCC(=O)O)O[C@@H]2O[C@@]3(C)CC[C@H]4[C@H](C)CC[C@@H]1[C@@]24OO3 [Artesunate]	0	650	almost no cross reactivities	No competitive inhibition	equally well	Cross-reactivity [8]: 630%
COc1cc(NC(C)CCCN)c2ncccc2c1 (stereo not drawn) [Primaquine phosphate]	0					
C[C@H]1[C@@H](O)O[C@@H]2O[C@@]3(C)CC[C@H]4[C@H](C)CC[C@@H]1[C@@]24OO3 [Dihydroartemisinin]	0	57	almost no cross reactivities	No competitive inhibition	equally well	blood concentrations ([3]; oral artemisinin): < 100 nM; time of peak of the metabolite ([6]; after artemisinin): 12 h; Cross-reactivity [8]: 30%
CO[C@H]1O[C@@H]2O[C@@]3(C)CC[C@H]4[C@H](C)CC[C@@H]([C@H]1C)[C@@]24OO3 [Artemether]	0	3	almost no cross reactivities	No competitive inhibition	equally well	binding by mAbs [5]: approximately the same level
CCc1nc(N)nc(N)c1-c1ccc(Cl)cc1 [Pyrimethamine]	0					
